The values that follow come from ChEMBL document CHEMBL1759974, “Discovery of triazine-benzimidazoles as selective inhibitors of mTOR” (Bioorg Med Chem Lett, 2011).

pIC50: −log10 of the molar value. Values after ≈ are worked out from the molar mass of the structure shown.

The target in series [1] is Serine/threonine-protein kinase mTOR (Rattus norvegicus) (UniProt P42346). Kind of series: Inhibition of HGF induced mTOR activation in rat liver assessed as inhibition of AKT phosphorylation at S473 at 30 mg/kg, ip 6 hrs prior to HGF stimulation by MSD analysis. Details: dose 30 mg/kg; scale not given: the % may be the effect or the level left. Format: organism-based.

For series [2] the target is unchanged. The experiment in a line: Inhibition of HGF induced mTOR activation in rat liver assessed as inhibition of AKT phosphorylation at S473 at 100 mg/kg, ip 6 hrs prior to HGF stimulation by MSD analysis. The format is organism-based. Details: dose 100 mg/kg.
Series [3] shares this target. The experiment in a line: Inhibition of HGF induced mTOR activation in rat liver assessed as inhibition of S6RP phosphorylation at 100 mg/kg, ip 6 hrs prior to HGF stimulation by MSD analysis. The format is organism-based. Further details: dose 100 mg/kg.
Series [4] has as its system Rattus norvegicus. The experiment in a line: Inhibition of HGF induced mTOR activation in ip dosed rat liver assessed as inhibition of AKT phosphorylation at S473 administered 6 hrs prior to HGF stimulation by MSD analysis. Format: functional, organism-based.
The test system of series [5] is Rattus norvegicus. Kind of series: AUC in rat at 2 mg/kg, po. Format: ADME, organism-based, Plasma. Further details: dose 2 mg/kg, route oral. The conditions noted are these: in vivo.
The nature of series [6]: AUC in rat at 50 mg/kg, po. Further details: dose 50 mg/kg, route oral. To be noted: plasma. The format is ADME, organism-based.
Series [7] can be described thus: Clearance in Sprague-Dawley rat at 1 mg/kg, iv and 2 mg/kg, po. To be noted: in vivo. Format: ADME, organism-based.
Series [8] in a line: Volume of distribution at steady state in Sprague-Dawley rat at 1 mg/kg, iv and 2 mg/kg, po. The conditions noted are these: in vivo, read-out: Vdss. Format: ADME, organism-based.
Series [9] has as its system Rattus norvegicus. The experiment in a line: AUC in Sprague-Dawley rat at 1 mg/kg, iv. The format is ADME, organism-based, Plasma. Details: dose 1 mg/kg, route intravenous. The conditions noted are these: in vivo.
The nature of series [10]: Half life in Sprague-Dawley rat at 1 mg/kg, iv. The conditions noted are these: in vivo. Further details: dose 1 mg/kg, route intravenous. Format: ADME, organism-based.
Series [11] can be described thus: Oral bioavailability in Sprague-Dawley rat at 2 mg/kg. Format: ADME, organism-based. To be noted: in vivo.
Series [12] in a line: Plasma protein binding in Sprague-Dawley rat at 1 mg/kg, iv and 2 mg/kg, po. The format is ADME, organism-based. To be noted: read-out: PPB (converted).
The nature of series [13]: Solubility of compound in 0.01 N HCL. The conditions noted are these: 0.01 N HCl; read-out: solubility. The format is physicochemical.
The target in series [14] is T1, Serine/threonine-protein kinase mTOR (Homo sapiens, UniProt P42345).
Series [15] deals with T1, Serine/threonine-protein kinase mTOR. This is another data set of the same source.
The target is the same in series [16]. The source holds these as a separate data set.
Description: Inhibition of mTOR in human U-87 cells assessed as inhibition of phosphorylation of AKT at S473
In series [17] the target is Phosphatidylinositol 4,5-bisphosphate 3-kinase catalytic subunit alpha isoform (Homo sapiens, UniProt P42336).
The target in series [18] is Phosphatidylinositol 4,5-bisphosphate 3-kinase catalytic subunit beta isoform (Homo sapiens, UniProt P42338).
Series [19] concerns the target T2, Phosphatidylinositol 4,5-bisphosphate 3-kinase catalytic subunit delta isoform (Homo sapiens, UniProt O00329).
T2 sequence (O00329 whole entry): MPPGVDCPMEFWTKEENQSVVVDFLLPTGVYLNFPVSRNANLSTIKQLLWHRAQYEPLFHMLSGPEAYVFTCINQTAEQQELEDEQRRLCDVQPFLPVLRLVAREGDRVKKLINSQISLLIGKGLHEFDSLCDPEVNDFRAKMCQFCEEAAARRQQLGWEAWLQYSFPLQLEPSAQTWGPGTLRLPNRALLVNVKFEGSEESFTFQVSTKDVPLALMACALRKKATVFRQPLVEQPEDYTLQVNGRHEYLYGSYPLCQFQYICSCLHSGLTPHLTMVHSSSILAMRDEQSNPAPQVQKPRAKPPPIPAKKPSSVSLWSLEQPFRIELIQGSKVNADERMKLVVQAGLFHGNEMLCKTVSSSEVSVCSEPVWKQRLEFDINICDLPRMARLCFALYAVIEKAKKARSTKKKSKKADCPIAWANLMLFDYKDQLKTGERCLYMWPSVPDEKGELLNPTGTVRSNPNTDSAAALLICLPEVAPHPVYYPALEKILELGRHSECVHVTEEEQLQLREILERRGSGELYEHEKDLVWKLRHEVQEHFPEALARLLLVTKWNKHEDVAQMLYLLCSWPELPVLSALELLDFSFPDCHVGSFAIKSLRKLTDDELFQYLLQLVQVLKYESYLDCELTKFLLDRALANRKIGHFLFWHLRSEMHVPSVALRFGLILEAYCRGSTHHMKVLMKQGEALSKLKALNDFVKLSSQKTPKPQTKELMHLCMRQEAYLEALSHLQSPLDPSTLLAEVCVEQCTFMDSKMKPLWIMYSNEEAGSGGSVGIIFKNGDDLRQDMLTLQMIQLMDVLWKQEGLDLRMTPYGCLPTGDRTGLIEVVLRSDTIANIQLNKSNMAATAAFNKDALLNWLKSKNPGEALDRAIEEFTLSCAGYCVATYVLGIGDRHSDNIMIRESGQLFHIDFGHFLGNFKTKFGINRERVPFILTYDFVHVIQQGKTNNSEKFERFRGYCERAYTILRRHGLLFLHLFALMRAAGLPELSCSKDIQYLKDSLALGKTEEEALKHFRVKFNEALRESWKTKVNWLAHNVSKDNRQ

For series [20], the target named is Phosphatidylinositol 4,5-bisphosphate 3-kinase catalytic subunit gamma isoform (Homo sapiens, UniProt P48736).

The term inhibition denotes the percentage by which the read-out fell short of the control. The half-life is the time needed for the level to fall by half in the phase considered. As a reminder, the bioavailability is the share of a dose that reaches the circulation, judged against a reference dose that is usually intravenous. The term solubility denotes how much of the substance goes into solution per volume. The term pIC50 denotes the negative decadic logarithm of the IC50, by convention in mol/L.

Phosphatidylinositol 4,5-bisphosphate 3-kinase catalytic subunit beta isoform, sequence (P42338 whole entry, canonical isoform): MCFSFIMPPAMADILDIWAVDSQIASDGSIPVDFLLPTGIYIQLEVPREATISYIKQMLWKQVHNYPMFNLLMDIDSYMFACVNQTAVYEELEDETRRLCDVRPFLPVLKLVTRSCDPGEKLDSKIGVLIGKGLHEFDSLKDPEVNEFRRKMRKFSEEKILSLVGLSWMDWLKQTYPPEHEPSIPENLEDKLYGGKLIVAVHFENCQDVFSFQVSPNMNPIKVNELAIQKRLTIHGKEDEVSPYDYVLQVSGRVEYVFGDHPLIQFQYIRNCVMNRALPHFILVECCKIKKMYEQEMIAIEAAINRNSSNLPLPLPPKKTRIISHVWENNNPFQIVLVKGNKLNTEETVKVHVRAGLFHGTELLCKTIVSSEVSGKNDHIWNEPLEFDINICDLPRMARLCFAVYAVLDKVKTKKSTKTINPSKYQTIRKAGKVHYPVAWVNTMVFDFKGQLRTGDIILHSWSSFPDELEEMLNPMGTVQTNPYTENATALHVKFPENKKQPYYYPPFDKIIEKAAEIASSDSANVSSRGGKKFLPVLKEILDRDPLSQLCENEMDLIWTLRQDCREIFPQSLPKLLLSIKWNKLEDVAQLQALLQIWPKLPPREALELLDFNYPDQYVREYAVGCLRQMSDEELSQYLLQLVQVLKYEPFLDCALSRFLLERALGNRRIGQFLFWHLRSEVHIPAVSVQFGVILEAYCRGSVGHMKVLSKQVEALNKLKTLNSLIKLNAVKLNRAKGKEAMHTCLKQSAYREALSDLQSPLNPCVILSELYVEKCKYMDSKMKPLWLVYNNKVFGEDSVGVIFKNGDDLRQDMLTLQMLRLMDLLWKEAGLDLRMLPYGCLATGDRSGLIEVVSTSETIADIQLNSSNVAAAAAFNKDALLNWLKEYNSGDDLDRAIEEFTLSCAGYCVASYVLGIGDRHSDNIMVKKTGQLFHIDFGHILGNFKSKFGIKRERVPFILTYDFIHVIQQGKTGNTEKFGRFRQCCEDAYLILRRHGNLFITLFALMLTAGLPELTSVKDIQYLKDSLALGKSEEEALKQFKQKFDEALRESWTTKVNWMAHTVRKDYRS
Phosphatidylinositol 4,5-bisphosphate 3-kinase catalytic subunit alpha isoform, sequence (P42336 whole entry, canonical isoform): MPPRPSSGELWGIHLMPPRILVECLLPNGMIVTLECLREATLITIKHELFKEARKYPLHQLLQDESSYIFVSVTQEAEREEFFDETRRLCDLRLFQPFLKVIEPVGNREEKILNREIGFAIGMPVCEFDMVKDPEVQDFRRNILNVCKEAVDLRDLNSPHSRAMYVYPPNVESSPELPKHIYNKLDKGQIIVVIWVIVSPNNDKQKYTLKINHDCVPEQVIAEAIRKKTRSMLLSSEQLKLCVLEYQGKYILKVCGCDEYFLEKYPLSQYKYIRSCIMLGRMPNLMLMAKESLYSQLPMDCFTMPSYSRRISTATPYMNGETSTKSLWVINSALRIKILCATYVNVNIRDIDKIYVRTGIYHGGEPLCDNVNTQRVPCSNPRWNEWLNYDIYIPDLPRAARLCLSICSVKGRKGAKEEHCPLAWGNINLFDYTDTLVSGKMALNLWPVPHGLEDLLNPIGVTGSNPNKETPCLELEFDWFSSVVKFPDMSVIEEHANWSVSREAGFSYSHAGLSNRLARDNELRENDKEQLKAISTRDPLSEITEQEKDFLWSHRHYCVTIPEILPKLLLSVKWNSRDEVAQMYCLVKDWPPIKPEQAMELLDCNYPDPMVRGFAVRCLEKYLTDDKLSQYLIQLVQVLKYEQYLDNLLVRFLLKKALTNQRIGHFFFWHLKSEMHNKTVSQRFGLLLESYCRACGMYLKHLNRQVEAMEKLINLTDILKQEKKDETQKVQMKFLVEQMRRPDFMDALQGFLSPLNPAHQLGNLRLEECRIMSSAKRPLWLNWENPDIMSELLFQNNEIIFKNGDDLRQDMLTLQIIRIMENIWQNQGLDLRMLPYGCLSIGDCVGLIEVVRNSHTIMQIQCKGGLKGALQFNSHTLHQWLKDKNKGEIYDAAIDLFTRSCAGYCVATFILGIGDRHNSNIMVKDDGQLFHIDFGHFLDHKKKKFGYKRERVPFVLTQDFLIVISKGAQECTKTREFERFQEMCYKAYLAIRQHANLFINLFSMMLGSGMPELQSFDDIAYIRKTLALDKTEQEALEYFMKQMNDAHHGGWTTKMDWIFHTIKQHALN
Phosphatidylinositol 4,5-bisphosphate 3-kinase catalytic subunit gamma isoform, sequence (P48736 whole entry, canonical isoform): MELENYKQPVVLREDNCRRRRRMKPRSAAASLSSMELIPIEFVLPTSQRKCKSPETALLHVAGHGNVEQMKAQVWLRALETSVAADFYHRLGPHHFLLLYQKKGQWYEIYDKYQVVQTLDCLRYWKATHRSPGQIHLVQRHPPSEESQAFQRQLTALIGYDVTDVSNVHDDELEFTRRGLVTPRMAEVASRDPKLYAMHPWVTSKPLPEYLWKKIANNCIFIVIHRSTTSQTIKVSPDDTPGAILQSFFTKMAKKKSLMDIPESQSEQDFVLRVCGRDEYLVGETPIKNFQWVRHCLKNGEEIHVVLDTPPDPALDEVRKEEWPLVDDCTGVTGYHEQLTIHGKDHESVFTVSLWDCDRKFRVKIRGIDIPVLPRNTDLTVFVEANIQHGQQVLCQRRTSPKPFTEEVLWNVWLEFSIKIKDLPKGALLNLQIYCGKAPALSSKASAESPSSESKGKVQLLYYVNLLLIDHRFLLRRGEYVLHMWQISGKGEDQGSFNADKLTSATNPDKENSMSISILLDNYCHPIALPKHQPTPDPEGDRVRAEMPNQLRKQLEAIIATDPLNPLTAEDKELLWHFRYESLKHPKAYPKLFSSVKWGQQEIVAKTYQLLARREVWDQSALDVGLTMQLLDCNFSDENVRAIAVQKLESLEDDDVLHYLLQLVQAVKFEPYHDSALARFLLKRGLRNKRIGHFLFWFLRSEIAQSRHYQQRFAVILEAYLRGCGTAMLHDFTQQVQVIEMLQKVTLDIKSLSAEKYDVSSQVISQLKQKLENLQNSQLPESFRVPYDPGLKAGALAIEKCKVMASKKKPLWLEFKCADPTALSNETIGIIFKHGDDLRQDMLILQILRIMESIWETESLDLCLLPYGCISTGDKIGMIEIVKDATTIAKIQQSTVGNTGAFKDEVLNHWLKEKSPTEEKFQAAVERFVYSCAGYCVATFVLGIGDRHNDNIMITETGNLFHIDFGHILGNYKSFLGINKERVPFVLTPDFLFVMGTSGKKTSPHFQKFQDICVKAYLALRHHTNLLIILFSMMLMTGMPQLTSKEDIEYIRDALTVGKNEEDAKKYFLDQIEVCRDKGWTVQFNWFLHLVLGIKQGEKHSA

As to `CNc1nc(C)nc(-n2c(Nc3cc[nH]n3)nc3ccccc32)n1`, the Activity in [1] is 71%. Also, the inhibition was 83% in [2], 78% in series [3] and “Dose-dependent effect” in series [4]. In addition, the figures for the AUC in series [5], in series [6] and in series [9] were 1490 nM, 2.03 µM·h and 3.6 µM, respectively. The clearance in series [7] is 15.5 mL/min/kg. In addition, the Vd in [8] is 0.76 L/kg. Also, the half-life in series [10] is 33.6 min. This compound also registered a bioavailability in [11] of 20.7%. For the same compound, the fraction unbound in series [12] is 0.008. Also, in series [13], the solubility amounted to 156 µg/mL (≈ 485 µM). Moreover, the negative-log IC50 (pIC50) in [14] was 7.09; in series [15], 6.22; in [16], 7.00; in series [17], 5.66; in [18] it was 5.35; in series [19] it was 6.05. The compound further had a pIC50 in [20] of 5.49.
